The values that follow come from US4086196A, “Parathyroid hormone” (Armour Pharmaceutical Company, priority 1975, dated 1978).

Experiment [1] concerns adenylate cyclase in rat renal cortical homogenates. As to the kind of experiment: In vitro rat kidney adenylate cyclase bioassay. It counts as biochemical. The note with it: mean potency with 95% confidence limits; against house standard Sephadex-BPTH calibrated to MRC Standard A. The protocol:
(§1) In vitro bioassays based on the activation of adenylate cyclase in rat renal cortical homogenates were carried out by the procedure of Marcus and Aurbach (Endocrinology, (1969), 85, 801-810). In vivo bioassays were performed by the method of Parsons, Reit and Robinson (Endocrinology, (1973), 92, 454-462), a procedure based on increase in the serum calcium in the chick after intravenous injection. A house standard of highly purified bovine parathyroid hormone ("Sephadex-BPTH") calibrated against Medical Research Council Standard A (National Institute for Medical Research, London, England) was used for both in vivo and in vitro assays. The biological activities of the synthetic HPTH-(1-34), and the native HPTH-(1-84)-peptides in the in vitro rat kidney adenylate cyclase assay and the in vivo chick hypercalcemia assay are shown in Table 2. Included for comparison are the corresponding data on the native bovine-(1-84) and the synthetic bovine-(1-34) peptides, as well as the analogue [Ala^1 ]-HPTH-(1-34).

The test system of experiment [2] is serum calcium in the chick. The experiment can be described thus: In vivo chick hypercalcemia bioassay. To be noted: mean potency with 95% confidence limits; intravenous injection; against house standard Sephadex-BPTH calibrated to MRC Standard A. Here is the method: as §1
The conditions of experiment [3]: bioassay systems in vivo and in vitro; cited from earlier work.

Consider `CC[C@H](C)[C@H](NC(=O)[C@H](CCC(=O)O)NC(=O)[C@H](CO)NC(=O)[C@@H](NC(=O)[C@@H](N)CO)C(C)C)C(=O)N[C@@H](CCC(N)=O)C(=O)N[C@@H](CC(C)C)C(=O)N[C@@H](CCSC)C(=O)N[C@@H](Cc1c[nH]cn1)C(=O)N[C@@H](CC(N)=O)C(=O)N[C@@H](CC(C)C)C(=O)NCC(=O)N[C@@H](CCCCN)C(=O)N[C@@H](Cc1c[nH]cn1)C(=O)N[C@@H](CC(C)C)C(=O)N[C@@H](CC(N)=O)C(=O)N[C@@H](CO)C(=O)N[C@@H](CCSC)C(=O)N[C@@H](CCC(=O)O)C(=O)N[C@@H](CCCNC(=N)N)C(=O)N[C@H](C(=O)N[C@@H](CCC(=O)O)C(=O)N[C@@H](Cc1c[nH]c2ccccc12)C(=O)N[C@@H](CC(C)C)C(=O)N[C@@H](CCCNC(=N)N)C(=O)N[C@@H](CCCCN)C(=O)N[C@@H](CCCCN)C(=O)N[C@@H](CC(C)C)C(=O)N[C@@H](CCC(N)=O)C(=O)N[C@@H](CC(=O)O)C(=O)N[C@H](C(=O)N[C@@H](Cc1c[nH]cn1)C(=O)N[C@@H](CC(N)=O)C(=O)N[C@@H](Cc1ccccc1)C(=O)O)C(C)C)C(C)C` [HPTH-(1-34)], for which the “In vitro Rat kidney adenylate cyclase” value in experiment [1] is reported as 1030 (930-1140) MRCU/mg. Moreover, in experiment [2], the “In vivo Chick hypercalcemia” value is 7400(5700-9700) MRCU/mg.
For `CC[C@H](C)[C@H](NC(=O)[C@H](CCC(=O)O)NC(=O)[C@H](CO)NC(=O)[C@@H](NC(=O)[C@H](C)N)C(C)C)C(=O)N[C@@H](CCC(N)=O)C(=O)N[C@@H](CC(C)C)C(=O)N[C@@H](CCSC)C(=O)N[C@@H](Cc1c[nH]cn1)C(=O)N[C@@H](CC(N)=O)C(=O)N[C@@H](CC(C)C)C(=O)NCC(=O)N[C@@H](CCCCN)C(=O)N[C@@H](Cc1c[nH]cn1)C(=O)N[C@@H](CC(C)C)C(=O)N[C@@H](CC(N)=O)C(=O)N[C@@H](CO)C(=O)N[C@@H](CCSC)C(=O)N[C@@H](CCC(=O)O)C(=O)N[C@@H](CCCNC(=N)N)C(=O)N[C@H](C(=O)N[C@@H](CCC(=O)O)C(=O)N[C@@H](Cc1c[nH]c2ccccc12)C(=O)N[C@@H](CC(C)C)C(=O)N[C@@H](CCCNC(=N)N)C(=O)N[C@@H](CCCCN)C(=O)N[C@@H](CCCCN)C(=O)N[C@@H](CC(C)C)C(=O)N[C@@H](CCC(N)=O)C(=O)N[C@@H](CC(=O)O)C(=O)N[C@H](C(=O)N[C@@H](Cc1c[nH]cn1)C(=O)N[C@@H](CC(N)=O)C(=O)N[C@@H](Cc1ccccc1)C(=O)O)C(C)C)C(C)C` [[Ala^1]-HPTH-(1-34)], in experiment [1], the “In vitro Rat kidney adenylate cyclase” value is 4085(3550-4700) MRCU/mg. For the same molecule, the “In vivo Chick hypercalcemia” value in experiment [2] was 4600(3500-6000) MRCU/mg.
For “BPTH-(1-34): synthetic peptide corresponding to 1-34 residues of bovine parathyroid hormone [reference compound]”, in experiment [1], the “In vitro Rat kidney adenylate cyclase” value is listed as 5400(3900-8000) MRCU/mg. Further, the “potency relative to whole bovine parathyroid hormone” value in experiment [3] is “equipotent”. Also, in experiment [2], the “In vivo Chick hypercalcemia” value was 7700(5200-11100) MRCU/mg.
In the case of “HPTH-(1-84) (native): native human parathyroid hormone (1-84)”, in experiment [1], the “In vitro Rat kidney adenylate cyclase” value is reported as 350 (275-425) MRCU/mg.

B1: BPTH-(1-84) (native): native bovine parathyroid hormone (1-84) (protein, UniProt P01268 32-115, looked up)
Parathyroid hormone: AVSEIQFMHNLGKHLSSMERVEWLRKKLQDVHNFVALGASIAYRDGSSQRPRKKEDNVLVESHQKSLGEADKADVDVLIKAKPQ
modifications: Parathyroid hormone
B1: the “In vitro Rat kidney adenylate cyclase” value in experiment [1] is 3000(2500-4000) MRCU/mg. Further, the “In vivo Chick hypercalcemia” value in experiment [2] is reported as 2500(2100-4000) MRCU/mg.
